Calls of active or inactive are those of the source.
How the values were obtained:
[1] = tested on: HEK293; assay: NOD2 signaling inhibitors in MDP-stimulated cells, cell-based, uHTS, luminescence (AID 2001); assay type: functional; details: Homo sapiens
[2] = tested on: HEK293; assay: inhibition of NOD1-driven NF-kB reporter – cell-based, luminescence, uHTS, primary screen (AID 1578); assay type: functional; details: Homo sapiens
[3] = tested on: HEK293; assay: cells; assay type: functional, cell-based; details: Homo sapiens
[4] = tested on: HEK293; assay: cells; assay type: functional, cell-based; details: Homo sapiens; remark: listed apart in the source
[5] = tested on: HEK293; assay: cells; assay type: functional, cell-based; details: Homo sapiens; remark: listed apart in the source
[6] = target: Nucleotide-binding oligomerization domain-containing protein 2 (Homo sapiens, UniProt Q9HC29); assay: inhibition of NOD2-driven NF-kB reporter – cell-based, luminescence, uHTS, HEK293 (AID 1566); assay type: functional
Sequence of Nucleotide-binding oligomerization domain-containing protein 2 (Q9HC29 whole entry, the tested form may be a part): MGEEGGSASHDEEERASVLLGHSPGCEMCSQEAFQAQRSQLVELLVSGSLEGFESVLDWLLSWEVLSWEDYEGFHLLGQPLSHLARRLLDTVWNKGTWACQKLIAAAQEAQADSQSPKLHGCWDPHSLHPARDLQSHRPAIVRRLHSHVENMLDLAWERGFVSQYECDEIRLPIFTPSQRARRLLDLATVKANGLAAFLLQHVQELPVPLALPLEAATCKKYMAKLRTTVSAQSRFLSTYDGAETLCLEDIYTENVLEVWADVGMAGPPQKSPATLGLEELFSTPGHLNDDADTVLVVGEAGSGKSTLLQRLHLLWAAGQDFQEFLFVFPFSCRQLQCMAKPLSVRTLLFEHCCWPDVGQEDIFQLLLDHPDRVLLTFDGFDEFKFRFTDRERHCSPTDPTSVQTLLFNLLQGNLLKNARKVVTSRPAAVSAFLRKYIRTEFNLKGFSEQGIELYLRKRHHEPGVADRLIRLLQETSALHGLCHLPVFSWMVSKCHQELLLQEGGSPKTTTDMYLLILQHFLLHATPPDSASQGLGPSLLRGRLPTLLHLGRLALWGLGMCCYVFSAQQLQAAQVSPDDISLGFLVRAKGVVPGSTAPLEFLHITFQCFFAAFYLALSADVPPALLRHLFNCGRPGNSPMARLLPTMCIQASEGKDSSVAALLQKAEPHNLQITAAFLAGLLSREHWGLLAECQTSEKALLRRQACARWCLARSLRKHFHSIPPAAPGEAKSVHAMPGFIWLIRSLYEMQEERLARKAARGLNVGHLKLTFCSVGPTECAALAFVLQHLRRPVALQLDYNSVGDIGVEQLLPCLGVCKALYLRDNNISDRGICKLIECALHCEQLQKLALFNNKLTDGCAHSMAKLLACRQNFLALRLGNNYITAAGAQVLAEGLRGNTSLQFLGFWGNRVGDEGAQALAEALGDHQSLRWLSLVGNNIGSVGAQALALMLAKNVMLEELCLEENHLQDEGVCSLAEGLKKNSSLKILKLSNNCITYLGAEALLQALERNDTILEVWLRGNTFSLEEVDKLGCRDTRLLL

[7] = target: T1, Cysteine protease ATG4B (Homo sapiens, UniProt Q9Y4P1); assay type: functional;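 note: Fluorescence-based dose-response confirmation assay measuring inhibition of ATG4B activity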
T1 sequence (Q9Y4P1 whole entry): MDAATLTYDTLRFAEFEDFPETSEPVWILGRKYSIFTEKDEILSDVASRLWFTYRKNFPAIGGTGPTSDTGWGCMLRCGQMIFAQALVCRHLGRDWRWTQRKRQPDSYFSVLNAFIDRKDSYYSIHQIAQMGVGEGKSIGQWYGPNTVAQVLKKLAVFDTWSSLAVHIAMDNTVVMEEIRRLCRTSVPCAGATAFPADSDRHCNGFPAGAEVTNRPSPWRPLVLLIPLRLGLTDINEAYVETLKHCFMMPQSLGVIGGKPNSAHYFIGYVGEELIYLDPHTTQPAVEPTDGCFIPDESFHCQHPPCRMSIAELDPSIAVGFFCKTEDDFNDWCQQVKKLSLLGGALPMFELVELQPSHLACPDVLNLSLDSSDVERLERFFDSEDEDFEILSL

[8] = target: Phospholipase A2 (Homo sapiens, UniProt P04054); assay type: functional;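 note: confirmatory dose-response counterscreen on phospholipase A2, testing hits that came from an ultra-high-throughput screen for ATG4B inhibitors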
Sequence of Phospholipase A2 (P04054 whole entry): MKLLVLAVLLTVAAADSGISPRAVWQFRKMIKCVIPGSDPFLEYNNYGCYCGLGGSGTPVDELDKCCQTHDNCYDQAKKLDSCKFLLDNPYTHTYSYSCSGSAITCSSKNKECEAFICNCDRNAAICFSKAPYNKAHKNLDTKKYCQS

[9] = viability of HCT116 lacking mutant beta-catenin – cell-based, human colon tumor, dose response (AID 1045); assay type: functional;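 note: HCT116 colon tumor cells with beta catenin knocked out; cells exposed to compound for 60 hours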
[10] = tested on: Vero; assay: cells; assay type: functional; details: Chlorocebus sabaeus
[11] = tested on: Streptococcus; assay: GAS UMAA2166 growth inhibition – luminescence, BacTiterGlo, counter-screen for streptokinase expression inhibitor project, dose response (AID 1915); assay type: functional, organism-based;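 note: potency for reduction of bacterial viability or growth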
[12] = viability of PTEN-deleted HCT116 cells – cell-based, HCT116 PTEN knockout, dose response (AID 1047); assay type: functional;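 note: HCT116 colon tumor cells with PTEN knocked out; cells exposed to compound for 60 hours before readout; potency for loss of cell viability measured by luminescence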
[13] = Trypanosoma cruzi growth suppression in host cells – NIH3T3 host cells, beta-gal luminescence, confirmation (AID 2044); assay type: functional, cell-based;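 note: intracellular parasites grown in NIH/3T3 mouse fibroblasts as host cells; luminescent beta-galactosidase reporter signal from transgenic T. cruzi replicating inside host cells; inhibitors lower the luminescence signal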
[14] = NIH3T3 cell viability loss – ATP luminescence, mouse fibroblasts, counter-screen, dose response (AID 2010); assay type: functional, cell-based;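 note: cells exposed to compound for about 90 hours before reading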
[15] = target: T2, Streptokinase A (Streptococcus pyogenes serotype M1, UniProt P10520); assay: viability-normalized secreted streptokinase activity reduction – plasminogen activation absorbance, OD405, dose response (AID 1914); assay type: functional, Streptococcus pyogenes M1 GAS;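 note: secreted streptokinase activity via plasminogen activation per viability signal from cell pellet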
T2 sequence (P10520 whole entry): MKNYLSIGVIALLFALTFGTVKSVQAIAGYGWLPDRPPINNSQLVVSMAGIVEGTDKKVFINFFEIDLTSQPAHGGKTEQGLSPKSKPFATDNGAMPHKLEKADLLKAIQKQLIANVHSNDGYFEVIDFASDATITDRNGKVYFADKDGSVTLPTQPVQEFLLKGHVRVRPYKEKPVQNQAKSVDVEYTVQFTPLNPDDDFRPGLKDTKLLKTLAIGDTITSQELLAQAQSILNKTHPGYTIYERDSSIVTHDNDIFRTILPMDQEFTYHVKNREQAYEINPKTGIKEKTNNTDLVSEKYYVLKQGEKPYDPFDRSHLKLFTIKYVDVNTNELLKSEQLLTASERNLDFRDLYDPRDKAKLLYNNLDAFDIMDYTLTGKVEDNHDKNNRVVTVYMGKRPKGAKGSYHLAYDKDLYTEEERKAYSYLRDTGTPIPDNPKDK

[16] = target: T3, DNA repair protein RAD52 homolog (Homo sapiens, UniProt P43351); assay type: functional, biochemical
T3 sequence (P43351 whole entry): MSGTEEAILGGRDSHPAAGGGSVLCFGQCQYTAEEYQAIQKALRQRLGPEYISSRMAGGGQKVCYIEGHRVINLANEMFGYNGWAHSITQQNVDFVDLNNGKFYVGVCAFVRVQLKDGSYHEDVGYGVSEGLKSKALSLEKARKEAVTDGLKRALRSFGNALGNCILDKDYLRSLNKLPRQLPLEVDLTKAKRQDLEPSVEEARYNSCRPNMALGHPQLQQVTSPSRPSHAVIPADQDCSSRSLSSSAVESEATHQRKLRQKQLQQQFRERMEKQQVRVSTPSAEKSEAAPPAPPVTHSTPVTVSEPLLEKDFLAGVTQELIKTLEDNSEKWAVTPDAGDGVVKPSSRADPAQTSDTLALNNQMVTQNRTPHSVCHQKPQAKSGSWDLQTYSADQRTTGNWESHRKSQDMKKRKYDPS

[17] = NIH-3T3 fibroblast cytotoxicity, dose response, cytotoxicity control, cell-based, fluorescence, Alamar Blue, secondary assay (AID 2327); assay type: functional;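 note: NIH-3T3 mouse fibroblasts cultured with fluconazole at 8 µg/mL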
[18] = tested on: Streptococcus sp. 'group A'; assay: Streptococcus pyogenes SK(-)GAS viability under kanamycin – luminescence, BacTiterGlo, confirmation, counter-screen for streptokinase expression inhibitor project, dose response (AID 1900); assay type: functional, organism-based
[19] = fluconazole-exposed Candida albicans growth modulators – fluorescence, retest, confirmation (AID 2467); assay type: functional, cell-based
[20] = target: Cytochrome P450 2C9 (Homo sapiens, UniProt P11712)
Sequence of Cytochrome P450 2C9 (P11712 whole entry): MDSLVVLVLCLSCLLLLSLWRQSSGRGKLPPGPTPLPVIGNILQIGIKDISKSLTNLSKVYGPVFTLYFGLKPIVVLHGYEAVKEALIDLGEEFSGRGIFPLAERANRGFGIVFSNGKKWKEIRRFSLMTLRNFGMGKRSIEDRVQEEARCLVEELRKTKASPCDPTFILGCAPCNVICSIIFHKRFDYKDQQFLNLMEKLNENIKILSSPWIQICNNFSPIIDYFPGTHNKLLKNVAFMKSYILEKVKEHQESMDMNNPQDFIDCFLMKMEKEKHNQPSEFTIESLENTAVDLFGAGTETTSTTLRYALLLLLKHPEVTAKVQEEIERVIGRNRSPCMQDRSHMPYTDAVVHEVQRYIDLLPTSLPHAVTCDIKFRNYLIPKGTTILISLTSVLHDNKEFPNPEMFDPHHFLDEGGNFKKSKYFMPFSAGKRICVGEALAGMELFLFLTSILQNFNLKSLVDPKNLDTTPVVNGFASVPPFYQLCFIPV

[21] = target: T4, Cytochrome P450 1A2 (Homo sapiens, UniProt P05177);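 note: PubChem cytochrome P450 panel assay, CYP1A2 panel member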
T4 sequence (P05177 whole entry): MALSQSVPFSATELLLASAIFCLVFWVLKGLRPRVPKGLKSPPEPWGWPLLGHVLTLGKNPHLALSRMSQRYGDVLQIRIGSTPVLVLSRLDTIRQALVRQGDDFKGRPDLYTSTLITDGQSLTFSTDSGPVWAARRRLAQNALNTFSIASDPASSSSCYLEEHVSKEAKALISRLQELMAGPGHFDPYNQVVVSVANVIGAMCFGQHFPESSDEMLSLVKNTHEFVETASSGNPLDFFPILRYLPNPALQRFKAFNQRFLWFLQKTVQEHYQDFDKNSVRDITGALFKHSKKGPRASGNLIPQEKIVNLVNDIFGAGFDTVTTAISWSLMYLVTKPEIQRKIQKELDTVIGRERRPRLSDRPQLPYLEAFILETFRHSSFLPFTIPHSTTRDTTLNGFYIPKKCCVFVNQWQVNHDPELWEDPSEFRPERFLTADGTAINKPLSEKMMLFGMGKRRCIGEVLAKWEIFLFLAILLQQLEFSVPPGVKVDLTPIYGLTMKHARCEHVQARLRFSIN

[22] = target: Cytochrome P450 2D6 (Homo sapiens, UniProt P10635);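 note: CYP2D6 member of a cytochrome P450 panel assay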
Sequence of Cytochrome P450 2D6 (P10635 whole entry): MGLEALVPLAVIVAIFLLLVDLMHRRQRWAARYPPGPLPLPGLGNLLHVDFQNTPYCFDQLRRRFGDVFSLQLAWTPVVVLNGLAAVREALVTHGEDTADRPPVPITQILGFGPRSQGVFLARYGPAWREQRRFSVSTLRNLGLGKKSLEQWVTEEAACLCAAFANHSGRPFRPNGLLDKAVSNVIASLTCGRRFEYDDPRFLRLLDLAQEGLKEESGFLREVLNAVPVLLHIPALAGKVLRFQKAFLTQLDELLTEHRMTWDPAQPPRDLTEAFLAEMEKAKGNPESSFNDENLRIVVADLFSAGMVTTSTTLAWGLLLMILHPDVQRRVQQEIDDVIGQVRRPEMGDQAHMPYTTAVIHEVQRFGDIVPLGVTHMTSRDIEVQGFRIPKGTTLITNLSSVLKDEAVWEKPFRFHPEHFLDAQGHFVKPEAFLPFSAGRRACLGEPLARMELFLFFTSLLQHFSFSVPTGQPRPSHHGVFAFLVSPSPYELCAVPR

[23] = target: Glucose-6-phosphate 1-dehydrogenase (Homo sapiens, UniProt P11413); assay: inhibition of Homo sapiens G6PD, dose series – biochemical, fluorescence, selectivity assay for P. falciparum G6PD inhibitor project, dose response (AID 504792); assay type: functional
Sequence of Glucose-6-phosphate 1-dehydrogenase (P11413 whole entry): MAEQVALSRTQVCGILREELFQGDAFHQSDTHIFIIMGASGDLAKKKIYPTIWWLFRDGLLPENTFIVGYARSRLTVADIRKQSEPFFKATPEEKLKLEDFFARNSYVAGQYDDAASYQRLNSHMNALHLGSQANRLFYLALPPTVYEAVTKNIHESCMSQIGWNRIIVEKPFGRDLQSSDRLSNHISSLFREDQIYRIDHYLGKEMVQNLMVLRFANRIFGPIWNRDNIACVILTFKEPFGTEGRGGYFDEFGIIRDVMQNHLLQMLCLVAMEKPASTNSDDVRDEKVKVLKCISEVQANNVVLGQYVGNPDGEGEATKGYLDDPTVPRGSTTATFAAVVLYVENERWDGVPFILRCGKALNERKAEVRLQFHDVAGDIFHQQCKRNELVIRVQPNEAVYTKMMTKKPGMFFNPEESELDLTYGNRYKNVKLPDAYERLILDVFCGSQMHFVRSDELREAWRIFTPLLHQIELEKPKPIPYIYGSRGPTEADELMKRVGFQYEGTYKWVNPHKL

[24] = tested on: HeLa; assay: ATP-based viability loss in HeLa cells – cell-based, CellTiter-Glo luminescence, cherry-pick samples, cytotoxicity control for MITF activator project, dose response (AID 540259); assay type: functional; details: Homo sapiens
[25] = target: Beta-2 adrenergic receptor (Homo sapiens, UniProt P07550); assay: ADRB2 activation measured by internalization – cell-based, FAP fluorogen, flow cytometry, cherry pick 1, dose response (AID 588763); assay type: functional
Sequence of Beta-2 adrenergic receptor (P07550 whole entry): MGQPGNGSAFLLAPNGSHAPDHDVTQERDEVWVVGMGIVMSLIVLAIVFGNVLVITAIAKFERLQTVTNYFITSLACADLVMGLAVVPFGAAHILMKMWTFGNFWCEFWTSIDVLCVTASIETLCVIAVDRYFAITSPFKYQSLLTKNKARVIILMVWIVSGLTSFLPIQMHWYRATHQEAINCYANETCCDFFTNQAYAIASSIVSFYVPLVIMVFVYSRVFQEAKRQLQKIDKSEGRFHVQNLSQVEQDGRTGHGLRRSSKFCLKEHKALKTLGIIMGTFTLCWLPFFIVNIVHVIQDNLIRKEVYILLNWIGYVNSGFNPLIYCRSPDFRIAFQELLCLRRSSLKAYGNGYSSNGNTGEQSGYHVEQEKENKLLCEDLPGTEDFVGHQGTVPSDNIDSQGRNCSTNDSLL

Q: With COc1ccc(-c2cc(=O)oc3cc(O)ccc23)cc1 as the compound, how does the IC50 [1] read?
A: 3.06 µM (active)

Q: What about the EC50 [2] of the same compound?
A: 5.67 µM (active)

Q: What about the IC50 [3] of the same compound?
A: > 20 µM (inactive)

Q: And the IC50 [4]?
A: 2.45 µM (active)

Q: And the IC50 [5]?
A: > 20 µM (inactive)

Q: What about the EC50 [6] of the same compound?
A: 5.73 µM (active)

Q: Which IC50 [7] does the source give for Cc1onc(-c2ccccc2)c1CNC(=O)Nc1cccc(Cl)c1 here?
A: 15 µM (active)

Q: And the IC50 [8]?
A: 8.35 µM (active)

Q: For CCCCCCCOC(=O)C[N+](C)(C)CCOC1CC2CCC1(C)C2(C)C (configuration not stated), which EC50 [9] is on record?
A: 20.2 µM (active)

Q: And the CC50 [10]?
A: > 25 µM (active)

Q: And the IC50 [7]?
A: 7.62 µM (active)

Q: What about the EC50 [11] of the same compound?
A: 9.21 µM (active)

Q: What about the EC50 [12] of the same compound?
A: 15.8 µM (active)

Q: And the EC50 [13]?
A: 0.224 µM (active)

Q: What about the EC50 [14] of the same compound?
A: > 60 µM (not active)

Q: What about the EC50 [15] of the same compound?
A: 5.77 µM (active)

Q: What about the AC50 [16] of the same compound?
A: 29.2 µM (active)

Q: And the EC50 [17]?
A: > 150 µM (inactive)

Q: And the EC50 [18]?
A: 3.84 µM (active)

Q: And the EC50 [19]?
A: 0.997 µM (active)

Q: And the IC50 [8]?
A: 10.3 µM (active)

Q: With Oc1nc(-c2ccccc2)cc(C(F)(F)F)n1 as the compound, how does the AC50 [20] read?
A: 6.31 µM (inconclusive)

Q: What about the AC50 [21] of the same compound?
A: 11.2 µM (inconclusive)

Q: What about the AC50 [22] of the same compound?
A: inconclusive

Q: Which IC50 [23] does the source give for COc1ccc(/C=C/c2nc3ccccc3n2Cc2ccc(OC)c(OC)c2)cc1 here?
A: > 80 µM (inactive)

Q: And the AC50 [24]?
A: 37 µM (active)

Q: Which EC50 [25] does the source give for CCc1ccccc1N(C)S(=O)(=O)c1ccc2ncc(C(=O)O)c(O)c2c1 here?
A: 7.23 µM (active)

Reference: ChEMBL document CHEMBL1201862, “PubChem BioAssay data set” (2004)
